Among the data in patent US7473688B2, “Indolobenzazepine HCV NS5B inhibitors” (Bristol-Myers Squibb Company, priority 2005, dated 2009) are IC50 values, retold here.

T1 sequence (Q9WMX2 2420-2992): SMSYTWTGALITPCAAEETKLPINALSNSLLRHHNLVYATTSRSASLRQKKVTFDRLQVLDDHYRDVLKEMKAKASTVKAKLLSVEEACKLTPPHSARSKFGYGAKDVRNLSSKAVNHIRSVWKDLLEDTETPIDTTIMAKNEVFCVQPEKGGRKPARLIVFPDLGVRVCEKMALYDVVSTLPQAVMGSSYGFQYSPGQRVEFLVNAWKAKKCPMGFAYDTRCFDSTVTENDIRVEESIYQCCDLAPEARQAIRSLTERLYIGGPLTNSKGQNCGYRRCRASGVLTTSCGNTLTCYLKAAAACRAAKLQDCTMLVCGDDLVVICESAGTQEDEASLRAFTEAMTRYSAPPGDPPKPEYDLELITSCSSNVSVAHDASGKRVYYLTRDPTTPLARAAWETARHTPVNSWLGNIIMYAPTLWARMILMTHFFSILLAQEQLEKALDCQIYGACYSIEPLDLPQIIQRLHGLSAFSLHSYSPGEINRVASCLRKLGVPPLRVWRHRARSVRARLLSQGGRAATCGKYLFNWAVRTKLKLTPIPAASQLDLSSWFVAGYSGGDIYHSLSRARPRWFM

One assay addresses T1, HCV NS5B (Hepatitis C virus genotype 1b, UniProt Q9WMX2).
T1 construct: The protein was expressed with an 18 amino acid C-terminal truncation to enhance the solubility; made in house; host or cells: E. coli BL21 (DE3), pET21a
Description: HCV NS5B RdRp enzyme assay (preincubation protocol). It is filed as biochemical. The following applies: Table 1, read-out: IC50*. The procedure: HCV NS5B RdRp cloning, expression, and purification. The cDNA encoding the NS5B protein of HCV, genotype 1b, was cloned into the pET21a expression vector. The protein was expressed with an 18 amino acid C-terminal truncation to enhance the solubility. The E. coli competent cell line BL21 (DE3) was used for expression of the protein. Cultures were grown at 37° C. for ˜4 hours until the cultures reached an optical density of 2.0 at 600 nm. The cultures were cooled to 20° C. and induced with 1 mM IPTG. Fresh ampicillin was added to a final concentration of 50 μg/ml and the cells were grown overnight at 20° C.
Cell pellets (3L) were lysed for purification to yield 15-24 mgs of purified NS5B. The lysis buffer consisted of 20 mM Tris-HCl, pH 7.4, 500 mM NaCl, 0.5% triton X-100, 1 mM DTT, 1 mM EDTA, 20% glycerol, 0.5 mg/ml lysozyme, 10 mM MgCl2, 15 ug/ml deoxyribonuclease I, and Complete TM protease inhibitor tablets (Roche). After addition of the lysis buffer, frozen cell pellets were resuspended using a tissue homogenizer. To reduce the viscosity of the sample, aliquots of the lysate were sonicated on ice using a microtip attached to a Branson sonicator. The sonicated lysate was centrifuged at 100,000×g for 1 hr at 4° C. and filtered through a 0.2 μm filter unit (Corning).
The protein was purified using three sequential chromatography steps: Heparin sepharose CL-6B, polyU sepharose 4B, and Hitrap SP sepharose (Pharmacia). The chromatography buffers were identical to the lysis buffer but contained no lysozyme, deoxyribonuclease I, MgCl2 or protease inhibitor and the NaCl concentration of the buffer was adjusted according to the requirements for charging the protein onto the column. Each column was eluted with a NaCl gradient which varied in length from 5-50 column volumes depending on the column type. After the final chromatography step, the resulting purity of the enzyme is >90% based on SDS-PAGE analysis. The enzyme was aliquoted and stored at −80° C.
Standard HCV NS5B RdRp enzyme assay. HCV RdRp genotype 1b assays were run in a final volume of 60 μl in 96 well plates (Costar 3912). The assay buffer is composed of 20 mM Hepes, pH 7.5, 2.5 mM KCl, 2.5 mM MgCl2, 1 mM DTT, 1.6 U RNAse inhibitor (Promega N2515), 0.1 mg/ml BSA (Promega R3961), and 2% glycerol. All compounds were serially diluted (3-fold) in DMSO and diluted further in water such that the final concentration of DMSO in the assay was 2%. HCV RdRp genotype 1b enzyme was used at a final concentration of 28 nM. A polyA template was used at 6 nM, and a biotinylated oligo-dT12 primer was used at 180 nM final concentration. Template was obtained commercially (Amersham 27-4110). Biotinylated primer was prepared by Sigma Genosys. 3H-UTP was used at 0.6 μCi (0.29 μM total UTP). Reactions were initiated by the addition of enzyme, incubated at 30° C. for 60 min, and stopped by adding […] of 50 mM EDTA containing SPA beads (4 μg/μl, Amersham RPNQ 0007). Plates were read on a Packard Top Count NXT after >1 hr incubation at room temperature.
Modified HCV NS5B RdRp enzyme assay. A modified enzyme assay was performed essentially as described for the standard enzyme assay except for the following: The biotinylated oligo dT12 primer was precaptured on streptavidin-coated SPA beads by mixing primer and beads in assay buffer and incubating at room temperature for one hour. Unbound primer was removed after centrifugation. The primer-bound beads were resuspended in 20 mM Hepes buffer, pH 7.5 and used in the assay at final concentrations of […] primer and 0.67 μg/μl beads. Order of addition in the assay: Enzyme (14 nM) was added to diluted compound followed by the addition of a mixture of template (0.2 nM), 3H-UTP (0.6 μCi, 0.29 μM), and primer-bound beads, to initiate the reaction; concentrations given are final. Reactions were allowed to proceed for 4 hours at 30° C.
IC50 values for compounds were determined using seven different [I]. […]
`CN(C)S(=O)(=O)NC(=O)c1ccc2c(C3CCCCC3)c3n(c2c1)CC(C(=O)N1CCC(F)CC1)=Cc1ccccc1-3` [drawing 74]: the IC50 lay within 10 to 1000 nM.
As for `CON(C)S(=O)(=O)NC(=O)c1ccc2c(C3CCCCC3)c3n(c2c1)CC(C(=O)N1CCOCC1)=Cc1ccccc1-3` [drawing 90], the IC50 lay in the range of 10 to 1000 nM.
Consider `CN(C)S(=O)(=O)NC(=O)c1ccc2c(C3CCCCC3)c3n(c2c1)CC(C(=O)N1CCC(N2CCOCC2)CC1)=Cc1cc(OCc2ccccc2)ccc1-3` [drawing 139], for which the IC50 lay within 10 to 1000 nM.
As for `C[C@@H]1CN(CCNC(=O)C2=Cc3ccccc3-c3c(C4CCCCC4)c4ccc(C(=O)NS(=O)(=O)N(C)C)cc4n3C2)C[C@H](C)O1` [drawing 148], the IC50 is 10 to 1000 nM.
Turning to `C[C@@H]1CN(C(=O)NC2Cc3ccccc3-c3c(C4CCCCC4)c4ccc(C(=O)O)cc4n3C2)C[C@H](C)O1` (stereo partly shown) [drawing 151], the IC50 was in the range of 10 to 1000 nM.
`CN(C)S(=O)(=O)NC(=O)c1ccc2c(C3CCCCC3)c3n(c2c1)CC(NC(=O)N1CCOCC1)Cc1ccccc1-3` (stereo not shown) [drawing 153]: the IC50 is 10 to 1000 nM.
`CN(C)S(=O)(=O)NC(=O)c1ccc2c(C3CCCCC3)c3n(c2c1)CC(NC(=O)N1CCOCC1)Cc1ccccc1-3` (stereo not shown) [drawing 155]: the IC50 was in the range of 10 to 1000 nM.
On the same count and under the same terms, then `CC(=O)NN(C)C(=O)C1=Cc2ccccc2-c2c(C3CCCCC3)c3ccc(C(=O)O)cc3n2C1` [drawing 156], with 10 to 1000 nM; and `O=C(NCc1cnn[nH]1)c1ccc2c(C3CCCCC3)c3n(c2c1)CC(C(=O)N1CCC(N2CCOCC2)CC1)=Cc1ccccc1-3` [drawing 204], with 10 to 1000 nM.

The assay is the same for the next values; noted with them: Table 1a, read-out: IC50*.
In the case of `COc1ccc2c(c1)C=C(C(=O)N1CCN(c3nccs3)CC1)Cn1c-2c(C2CCCCC2)c2ccc(C(=O)NS(=O)(=O)N(C)C)cc21`, the IC50 is 10 to 1000 nM.
Regarding `COc1ccc2c(c1)C=C(C(=O)N1CCOC(c3ccccc3)C1)Cn1c-2c(C2CCCCC2)c2ccc(C(=O)NS(=O)(=O)N(C)C)cc21` (stereo not shown), the IC50 was 10 to 1000 nM.
Consider `COc1ccc2c(c1)C=C(C(=O)N1CCn3cnnc3C1)Cn1c-2c(C2CCCCC2)c2ccc(C(=O)NS(=O)(=O)N(C)C)cc21`, for which the IC50 lay within 10 to 1000 nM.
Turning to `COc1ccc2c(c1)C=C(C(=O)N1CCN(c3ncncn3)CC1)Cn1c-2c(C2CCCCC2)c2ccc(C(=O)NS(=O)(=O)N(C)C)cc21`, the IC50 was in the range of 10 to 1000 nM.
On to `COc1ccc2c(c1)C=C(C(=O)NCCN1C[C@@H](C)O[C@@H](C)C1)Cn1c-2c(C2CCCCC2)c2ccc(C(=O)NS(=O)(=O)N(C)C)cc21`, for which the IC50 fell in the range of 10 to 1000 nM.
Same read-out and setting: then `COc1ccc2c(c1)C=C(C(=O)N(C)C1CCS(=O)(=O)C1)Cn1c-2c(C2CCCCC2)c2ccc(C(=O)NS(=O)(=O)N(C)C)cc21` (stereo not shown), with 10 to 1000 nM; and `COc1ccc2c(c1)C=C(C(=O)N1CCS(=O)(=O)CC1)Cn1c-2c(C2CCCCC2)c2ccc(C(=O)NS(=O)(=O)N(C)C)cc21`, with 10 to 1000 nM; and `O=C(NCc1nnn[nH]1)c1ccc2c(C3CCCCC3)c3n(c2c1)CC(C(=O)N1CCC(N2CCOCC2)CC1)=Cc1ccccc1-3`, with 10 to 1000 nM.
Turning to `O=C(NCc1ccccn1)c1ccc2c(C3CCCCC3)c3n(c2c1)CC(C(=O)N1CCC(N2CCOCC2)CC1)=Cc1ccccc1-3`, the IC50 lay within 10 to 1000 nM.
Turning to `O=C(NCc1cn2ccccc2n1)c1ccc2c(C3CCCCC3)c3n(c2c1)CC(C(=O)N1CCC(N2CCOCC2)CC1)=Cc1ccccc1-3`, the IC50 was in the range of 10 to 1000 nM.
With `Cc1cnc(CNC(=O)c2ccc3c(C4CCCCC4)c4n(c3c2)CC(C(=O)N2CCC(N3CCOCC3)CC2)=Cc2ccccc2-4)cn1`, the IC50 was 10 to 1000 nM.
For the compound `C[C@@H]1CN(C(=O)C2=Cc3c(ccc4c3OCO4)-c3c(C4CCCCC4)c4ccc(C(=O)O)cc4n3C2)C[C@H](C)O1`, the concentration for half-maximal inhibition (IC50) fell in the range of 10 to 1000 nM.
Still for that read-out and setting: then `COc1ccc2c(c1)C=C(C(=O)N1CCOC(CN3CCCC3)C1)Cn1c-2c(C2CCCCC2)c2ccc(C(=O)NS(=O)(=O)N(C)C)cc21` (stereo not shown), with 10 to 1000 nM; and `O=C(NCc1ccco1)c1ccc2c(C3CCCCC3)c3n(c2c1)CC(C(=O)N1CCC(N2CCOCC2)CC1)=Cc1ccccc1-3`, with 10 to 1000 nM.
Take `O=C(NC[C@H]1CCCO1)c1ccc2c(C3CCCCC3)c3n(c2c1)CC(C(=O)N1CCC(N2CCOCC2)CC1)=Cc1ccccc1-3`: the IC50 lay within 10 to 1000 nM.
With `COc1ccc2c(c1)C[C@@H](C(=O)N1CCC[C@H](OC(C)=O)C1)Cn1c-2c(C2CCCCC2)c2ccc(C(=O)NS(=O)(=O)N(C)C)cc21` [drawing 320], the IC50 is 10 to 1000 nM.
Take `COc1ccc2c(c1)C[C@@H](C(=O)N1CCC[C@H](OC(C)=O)C1)Cn1c-2c(C2CCCCC2)c2ccc(C(=O)NS(=O)(=O)N(C)C)cc21` [drawing 326]: the IC50 was 10 to 1000 nM.

Staying with this assay, now noted: Table 1b, read-out: IC50*.
In the case of `COC(=O)c1ccc2c(C3CCCCC3)c3n(c2c1)CC(C(=O)NCC=O)=Cc1cc(OC)ccc1-3`, the IC50 is 20 to 1000 nM.
For `COc1ccc2c(c1)C=C(C(=O)N1C[C@H](CO)[C@@H](O)[C@H](O)C1)Cn1c-2c(C2CCCCC2)c2ccc(C(=O)NS(=O)(=O)N(C)C)cc21`, the IC50 was less than 20 nM.
As to `COc1ccc2c(c1)C=C(C(=O)N(C)[C@H](C)C(=O)N(C)C)Cn1c-2c(C2CCCCC2)c2ccc(C(=O)NS(=O)(=O)N(C)C)cc21`, the IC50 was less than 20 nM.
On to `COc1ccc2c(c1)C=C(C(=O)N(C)[C@H](C)C(=O)N1CCOCC1)Cn1c-2c(C2CCCCC2)c2ccc(C(=O)NS(=O)(=O)N(C)C)cc21`, for which the 50% inhibitory concentration (IC50) is less than 20 nM.
`O=C(O)c1ccc2c(C3CCCCC3)c3n(c2c1)CC(C(=O)N1CCOC(CO)C1)=Cc1cc(F)ccc1-3` (stereo not shown): the half-inhibitory concentration (IC50) lay in the range of 20 to 1000 nM.
On to `COC(=O)c1ccc2c(C3CCCCC3)c3n(c2c1)CC(C(=O)N1CCOC(CO)C1)=Cc1cc(F)ccc1-3` (stereo not shown), for which the IC50 fell in the range of 20 to 1000 nM.
With `COC(=O)c1ccc2c(C3CCCCC3)c3n(c2c1)CC(C(=O)N[C@@H]1C2CCC(C)([C@@H]1O)C2(C)C)=Cc1cc(OC)ccc1-3` (stereo partly shown), the IC50 was greater than 12500 nM.
On the same count and under the same terms, under `COc1ccc2c(c1)C=C(C(=O)N1C[C@@H](C)N(C(C)C)[C@@H](C)C1)Cn1c-2c(C2CCCCC2)c2ccc(C(=O)NS(=O)(=O)N(C)C)cc21` stands 20 to 1000 nM.

The IC50 is the midpoint of a concentration-inhibition curve.
